Holding throughout (format): physicochemical
Series [1] can be described thus: Hygroscopicity test (VTI SGA-100). The following applies: 25° C., 5% to 95% relative humidity. As for the experimental part: Measurement of the hygroscopicity of the crystals of the present invention was performed by using VTI SGA-100 under the conditions of temperature: 25° C., measurement range: 5% to 95% relative humidity, and measurement interval: 5% relative humidity.

Series [2] in a line: Physical solid stability (powder X-ray diffraction and DSC). The following applies: 70° C., plugged up, uncontrolled humidity, two weeks. As for the experimental part: With respect to solid state stability of the crystals of the present invention, physical/chemical stability under temperature and humidity conditions, and chemical stability in a light irradiation state were evaluated. The physical stability was evaluated by the powder X-ray diffraction and the differential scanning calorimetry analysis (DSC) (under the above-described measurement conditions). The chemical stability was evaluated by HPLC (related substance test and optical isomer separating test), and represented by the ratio (%) of generated impurities.
(Solid State Stability, Temperature)
In an Incubator IC-450A (manufactured by AS ONE Corporation) set as 70° C., a sample was plugged up and stored under the uncontrolled humidity environment for two weeks.
(Solid State Stability, Temperature/Humidity)

Series [3] can be described thus: Solubility in JP1, JP2, JP2+TC, FaSSIF, FeSSIF (shaking 10 minutes at room temperature, HPLC). The following applies: 10 minutes shaking. As for the experimental part:
0.5 mg to 1 mg of a sample was weighed in 10 mL of a centrifuge tube, and respective solutions (see below) were added thereto such that the amount thereof became approximately 150 μg/mL. In order to disperse the sample uniformly, the solution was sonicated in a water bath for a short period of time, followed by shaking at room temperature for 10 minutes using a shaker SA31 (manufactured by Yamato Scientific Co., Ltd.). The solution after being shaken was filtered with a filter, and the concentration of the compound in the filtrate was determined by HPLC. The following solutions were used.
JP1 (first solution of Japanese Pharmacopoeia Disintegration Test): 2.0 g of sodium chloride was dissolved in 7.0 mL of hydrochloric acid and water and the amount thereof was set to 1000 mL (pH: approximately 1.2).
JP2 (second solution of Japanese Pharmacopoeia Disintegration Test): 118 mL of 0.2 mol/L sodium hydroxide test solution and water were added to 250 mL of 0.2 mol/L potassium dihydrogen phosphate test solution and the amount thereof was set to 1000 mL (pH: approximately 6.8).
JP2+bile acid (JP2+TC): sodium taurocholic acid was added to the second solution of Japanese Pharmacopoeia Disintegration Test such that the amount thereof became 15 mmol/L.
FaSSIF (simulated intestinal fluid (fasted state)): 3 mmol/L of sodium taurochloric acid, 0.75 mmol/L of lecithin, 3.9 g of potassium dihydrogen phosphate, and 7.7 g of potassium chloride were added to 1 L of water and the pH thereof was adjusted to approximately 6.5 using sodium hydroxide.
FeSSIF (simulated intestinal fluid (fed state)): 15 mmol/L of sodium taurochloric acid, 3.75 mmol/L of lecithin, 8.65 g of acetic acid, and 15.2 g of potassium chloride were added to 1 L of water and the pH thereof was adjusted to approximately 5.0 using sodium hydroxide.
Device: LC1100 (manufactured by Agilent Technologies)
Mobile phase: A: 0.01 mol/L aqueous ammonium acetate solution, B: 0.01 mol/L ammonium acetate methanol solution
Column: Developsil Combi-RP-5.5 μm (2.1 mm×50 mm)
Column temperature: 40° C.
Detection wavelength: 254 nm

Setting [4] is: FaSSIF (simulated intestinal fluid, pH 6.5), FaSSIF (fasted state), pH approximately 6.5, room temperature, read-out: Solubility FaSSIF.
Setting [5] is: FeSSIF (simulated intestinal fluid, pH 5), FeSSIF (fed state), pH approximately 5.0, room temperature, read-out: Solubility FeSSIF.
The mark [6] stands for this setting: JP2+TC (JP2 + bile acid), JP2 + 15 mmol/L sodium taurocholic acid, room temperature, read-out: Solubility JP2 + TC.
The mark [7] stands for this setting: pH 1.2, JP1, pH approximately 1.2, room temperature, read-out: Solubility JP1.
The mark [8] stands for this setting: pH 6.8, JP2, pH approximately 6.8, room temperature, read-out: Solubility JP2.

Consider 4 molecules from patent publication US20140275105A1, “CRYSTAL OF ANDROGEN RECEPTOR AN[…]” (Astellas Pharma Inc., priority 2011, published 2014).

Where two headings read alike, the source gives them in different places.

As to `Br.C[C@@H]1CN(c2ccc(C#N)c(Cl)c2)[C@@H](C)CN1C(=O)Nc1cnc(C2CC2)nc1` [(2R,5S)-4-(3-chloro-4-cyanophenyl)-N-(2-cyclopropylpyrimidin-5-yl)-2,5-dimethylpiperazine-1-carboxamide hydrobromide], the Hygroscopicity in series [1] was 0.1% or less. Besides, the “Physical solid stability, temperature” value in series [2] was “Stable to the temperature”. The solubility at 10 minutes in series [3] (setting [4]) was 0.041 mg/mL; in series [3] (setting [5]), 0.0949 mg/mL; in series [3] (setting [6]), over 0.0806 mg/mL; in series [3] (setting [7]) it was 0.0123 mg/mL; in series [3] (setting [8]), 0.0198 mg/mL.

As for `C[C@@H]1CN(c2ccc(C#N)c(Cl)c2)[C@@H](C)CN1C(=O)Nc1cnc(C2CC2)nc1.Cl` [(2R,5S)-4-(3-chloro-4-cyanophenyl)-N-(2-cyclopropylpyrimidin-5-yl)-2,5-dimethylpiperazine-1-carboxamide hydrochloride], the Hygroscopicity in series [1] is about 1.4%. For the same molecule, in series [2], the “Physical solid stability, temperature” value is reported as “Stable to the temperature”. The solubility at 10 minutes in series [3] (setting [4]) was 0.0394 mg/mL; in series [3] (setting [5]), over 0.1 mg/mL; in series [3] (setting [6]) it was 0.0928 mg/mL; in series [3] (setting [7]), 0.0097 mg/mL; in series [3] (setting [8]), 0.0101 mg/mL.

With `CS(=O)(=O)O.C[C@@H]1CN(c2ccc(C#N)c(Cl)c2)[C@@H](C)CN1C(=O)Nc1cnc(C2CC2)nc1` [(2R,5S)-4-(3-chloro-4-cyanophenyl)-N-(2-cyclopropylpyrimidin-5-yl)-2,5-dimethylpiperazine-1-carboxamide methanesulfonate], in series [1], the Hygroscopicity was about 5%. The solubility at 10 minutes is 0.0472 mg/mL in series [3] (setting [4]); over 0.1 mg/mL in series [3] (setting [5]); over 0.1 mg/mL in series [3] (setting [6]); over 0.1 mg/mL in series [3] (setting [7]); 0.0206 mg/mL in series [3] (setting [8]).

On to `C[C@@H]1CN(c2ccc(C#N)c(Cl)c2)[C@@H](C)CN1C(=O)Nc1cnc(C2CC2)nc1.O` [(2R,5S)-4-(3-chloro-4-cyanophenyl)-N-(2-cyclopropylpyrimidin-5-yl)-2,5-dimethylpiperazine-1-carboxamide monohydrate], for which the Hygroscopicity in series [1] is on record as 0.1% or less. For the same molecule, the “Physical solid stability, temperature” value in series [2] is on record as “Stable to the temperature”. Moreover, the solubility at 10 minutes in series [3] (setting [4]) was 0.0044 mg/mL; in series [3] (setting [5]) it was 0.0177 mg/mL; in series [3] (setting [6]) it was 0.0088 mg/mL; in series [3] (setting [7]) it was 0.0218 mg/mL; in series [3] (setting [8]) it was 0.0016 mg/mL.

The solubility is the dissolved amount per volume that the medium holds.
